Assay results reported in ChEMBL document CHEMBL3886249, “Serine/threonine kinase inhibitors” (2015).

Biological target: Mitogen-activated protein kinase 1 (Homo sapiens, UniProt P28482)
Experiment: Enzymatic Assay: Compounds were tested in an enzymatic assay using human ERK-2 (Mitogen Activated Kinase 1), recombinantly expressed as an n-terminal 6-His fusion protein in E. coli and corresponding to aa 8-360. […] Test compounds were diluted in DMSO in 3-fold serial dilutions at 100x final concentrations.

Chain of Mitogen-activated protein kinase 1 (P28482 whole entry, the tested form may be a part): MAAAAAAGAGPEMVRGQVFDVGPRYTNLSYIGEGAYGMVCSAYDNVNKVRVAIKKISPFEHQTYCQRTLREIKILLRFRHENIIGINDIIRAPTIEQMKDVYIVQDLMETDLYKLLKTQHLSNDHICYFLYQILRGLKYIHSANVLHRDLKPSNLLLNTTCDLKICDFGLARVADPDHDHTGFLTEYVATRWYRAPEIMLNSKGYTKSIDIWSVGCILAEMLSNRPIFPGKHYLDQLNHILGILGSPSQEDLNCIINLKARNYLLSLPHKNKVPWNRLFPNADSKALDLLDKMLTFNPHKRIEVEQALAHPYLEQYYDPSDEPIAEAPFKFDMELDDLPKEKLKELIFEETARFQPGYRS

Row | SMILES | IC50 [nM]
1 | CC(C)Nc1ncc2c(n1)CN(C(=O)N[C@@H](c1ccc(C(F)(F)F)c(F)c1)c1cccc(=O)[nH]1)CC2 | 144
2 | CC1CC(Nc2ncc3c(n2)CN(C(=O)N[C@H](CO)c2ccc(Cl)c(F)c2)CC3)CCO1 (some centres not stated) | 2.39
